According to patent publication US20060276477A1, “Treatment method for anemia” (FibroGen, Inc., priority 2005, published 2006):

Tests used:
Assay type in all cases: in vivo
[1] = test system: circulating EPO; assay: Circulating EPO levels in mice after oral gavage of compound A
Experimental: Mice were administered various doses (0, 20, 30, 60 mg/kg) of compound A by oral gavage. Circulating levels of EPO were determined 6 hours after compound administration. […] Administration of 20 mg/kg of compound A increased circulating levels of EPO approximately two-fold.

[2] = test system: hematocrit; assay: Hematocrit in rats after intermittent dosing for 4 weeks
Experimental: Male (diamonds in FIG. 2) and female (triangles in FIG. 2) rats were administered various doses (20, 60, 150, 200, 300 mg/kg) of compound A two times per week (e.g., intermittent dosing) for 4 weeks. Hematocrit was determined on day 32.

[3] = test system: serum EPO; assay: Serum EPO levels in healthy human subjects after compound administration; parameters: EPO AUC (0-24 hours): unit not given beside the values
Experimental: […] At the indicated times (hours) after compound administration, serum EPO levels were determined.
(§1) Increases in circulating EPO levels following administration of compound A or of rhEPO were compared. Table 3 and Table 2 below show Cmax EPO and EPO Area Under the Curve (AUC) values following intravenous (i.v.) or subcutaneous (s.c.) administration of various doses of rhEPO to human subjects, respectively. […] (See Table 1 below.)

[4] = test system: circulating EPO; assay: Peak circulating (serum) EPO levels in normal monkeys after a single dose; conditions: 8-12 hours after administration
[5] = test system: circulating EPO; assay: Circulating EPO levels in bilateral nephrectomized and sham-operated mice
Experimental: Mice underwent bilateral nephrectomy (BN) surgery (or were sham-operated). Two hours after BN surgery, mice were administered a single oral dose (30 mg/kg) of compound A. Circulating EPO levels were measured 6 hours after compound administration. […] The kidneys produce the majority of endogenous EPO.

[6] = test system: hemoglobin; assay: Hemoglobin levels in anemic pre-dialysis human subjects with chronic kidney disease; conditions: for Mean change from Baseline Hb Day 42 (or last value carried forward): oral three-times per week for 4 weeks
Experimental: The effects of compound of the present invention on erythropoiesis in anemic pre-dialysis subjects with advanced stage chronic kidney disease were determined. Study subjects had chronic kidney disease and anemia, having GFR<30 ml/min and Hb<10g/dL. Two anemic pre-dialysis subject populations with chronic kidney disease (CKD) were studied: (1) subjects with no previous exposure to rhEPO (i.e., rhEPO-naive) and (2) subjects who had been receiving continuous rhEPO therapy for at least 8 weeks. In rhEPO-treated subjects, rhEPO administration was discontinued 5-14 days prior to initiation of treatment with compound of the present invention Subjects were orally administered compound A three-times per week for 4 weeks. Erythropoiesis was measured by changes in hemoglobin levels and serum EPO concentrations.

[7] = test system: circulating EPO; assay: Circulating EPO levels in mice after single intravenous or oral gavage dose; conditions: 6 hours after administration; for EPO Intravenous: single intravenous dose (dose of the table not stated; 2-60 mg/kg tested); for EPO Oral Gavage: single oral gavage dose (dose of the table not stated; 2-60 mg/kg tested)
Experimental: (§2) Mice were administered various doses (2 mg/kg, 6 mg/kg, 20 mg/kg, 60 mg/kg) of compounds of the present invention by oral gavage or by intravenous injection. Circulating levels of EPO were determined […] hours after single-dose administration of compound. Hemoglobin levels were measured in mice on day 8 following administration of compound by oral gavage on day 1, day 3, and day 5.

[8] = test system: hemoglobin; assay: Hemoglobin levels in mice on day 8 after oral gavage on day 1, 3 and 5; conditions: for Hemoglobin 6 mg/kg cmpd: 6 mg/kg oral gavage on day 1, 3 and 5, measured day 8; for Hemoglobin 20 mg/kg cmpd: 20 mg/kg oral gavage on day 1, 3 and 5, measured day 8; for Hemoglobin 60 mg/kg cmpd: 60 mg/kg oral gavage on day 1, 3 and 5, measured day 8; for Hemoglobin 2 mg/kg cmpd: 2 mg/kg oral gavage on day 1, 3 and 5, measured day 8
Experimental: as §2

[9] = Circulating EPO (Cmax, AUC) after i.v. or s.c. administration of rhEPO to human subjects; conditions: assumes basal endogenous EPO of ~10 mIU/ml
Description: as §1

Compound: O=C(O)CNC(=O)c1nc(Cl)c2ccccc2c1O [Compound A, [(1-Chloro-4-hydroxy-isoquinoline-3-carbonyl)-amino]-acetic acid]
- circulating levels of EPO ([1]; oral gavage 0, 20, 30, 60 mg/kg, 6 hours after administration (FIG. 1)): increased EPO levels in mice in a dose-dependent manner
- increase of circulating levels of EPO ([1]; oral gavage 20 mg/kg, 6 hours after administration): approximately two-fold
- hematocrit ([2]; male and female rats, 20, 60, 150, 200, 300 mg/kg two times per week for 4 weeks, day 32 (FIG. 2)): increased hematocrit in rats in a dose-dependent manner
- erythropoiesis, as determined by hematocrit ([2]; rats, 20 mg/kg two times per week for 4 weeks, day 32): clinically-significant increase in erythropoiesis
- serum EPO levels ([3]; healthy human subjects, 3, 6, 10, 15, 20 mg/kg oral (FIG. 3)): increased serum EPO levels in a dose-dependent manner
- EPO AUC (0-24 hours) ([3]; human subjects, PHI dose 6 mg/kg): 203.5
- EPO AUC (0-24 hours) ([3]; human subjects, PHI dose 10 mg/kg): 331
- EPO AUC (0-24 hours) ([3]; human subjects, PHI dose 20 mg/kg): 365.5
- EPO AUC (0-24 hours) ([3]; human subjects, PHI dose 30 mg/kg): 508
- circulating EPO levels compared with rhEPO administration ([3]; human subjects, therapeutically effective doses of compound A versus rhEPO): substantially lower circulating EPO levels
- Peak EPO ([4]; single dose 13 mg/kg, pre-dose 2.1): 3.6
- Peak EPO ([4]; single dose 30 mg/kg, pre-dose 0.6): 2.9
- Peak EPO ([4]; single dose 40 mg/kg, pre-dose 0.8): 32.3
- Peak EPO ([4]; single dose 50 mg/kg, pre-dose 0): 21.4
- Peak EPO ([4]; single dose 60 mg/kg, pre-dose 0): 1194.2
- circulating EPO levels ([5]; bilateral nephrectomized (BN) mice, single oral dose 30 mg/kg two hours after surgery, 6 hours after administration (FIG. 4B)): significant increase in EPO levels
- circulating EPO levels ([5]; sham-operated mice, single oral dose 30 mg/kg, 6 hours after administration (FIG. 4A)): an increase in circulating levels of EPO
- decrease from mean Hb baseline levels ([6]; CKD subjects after cessation of rhEPO therapy, placebo 1.5 g/dL decrease): 0.9 g/dL
- Mean change from Baseline Hb Day 42 (or last value carried forward) ([6]; CKD subjects previously on rhEPO (discontinued 5-14 days before), mean baseline Hb 11.7 g/dL, placebo −1.5): -0.9 g/dL
- hemoglobin levels versus placebo ([6]; rhEPO-naive CKD subjects, oral three-times per week for 4 weeks (FIG. 5)): hemoglobin levels were higher
- Mean change from Baseline Hb Day 42 (or last value carried forward) ([6]; rhEPO-naive CKD subjects, mean baseline Hb 9.6 g/dL, placebo −0.35, p = 0.036): 1.9 g/dL
- EPO Intravenous [7]: 1309 mIU/ml
- Hemoglobin 6 mg/kg cmpd [8]: 12.86 g/dL
- Hemoglobin 20 mg/kg cmpd [8]: 12.92 g/dL
- Hemoglobin 60 mg/kg cmpd [8]: 13.47 g/dL

Compound: Cc1nc(C(=O)NCC(=O)O)c(O)c2ccc(Oc3ccccc3)cc12 [Compound B, [(4-Hydroxy-1-methyl-7-phenoxy-isoquinoline-3-carbonyl)-amino]-acetic acid]
- Peak EPO ([4]; single dose 3 mg/kg, pre-dose 4.2): 13.1
- Peak EPO ([4]; single dose 30 mg/kg, pre-dose 0): 1534.0
- Peak EPO ([4]; single dose 60 mg/kg, pre-dose 1.2): 2739.8

Compound: COc1ccc(Oc2ccc3c(O)c(C(=O)NCC(=O)O)ncc3c2)cc1 [Compound C, {[4-Hydroxy-7-(4-methoxy-phenoxy)-isoquinoline-3-carbonyl]-amino}-acetic acid]
- EPO Intravenous [7]: 1663 mIU/ml
- Hemoglobin 6 mg/kg cmpd [8]: 13.68 g/dL
- Hemoglobin 20 mg/kg cmpd [8]: 14.29 g/dL
- Hemoglobin 60 mg/kg cmpd [8]: 14.94 g/dL

Compound: O=C(O)CNC(=O)c1ncc2c(Oc3ccccc3)cccc2c1O [Compound D, [(4-Hydroxy-8-phenoxy-isoquinoline-3-carbonyl)-amino]-acetic acid]
- EPO Intravenous [7]: 5473 mIU/ml
- EPO Oral Gavage [7]: 1201 mIU/ml
- Hemoglobin 2 mg/kg cmpd [8]: 14.1 g/dL
- Hemoglobin 6 mg/kg cmpd [8]: 13.98 g/dL
- Hemoglobin 20 mg/kg cmpd [8]: 14.55q g/dL

Compound: Cc1nc(C(=O)NCC(=O)O)c(O)c2cccc(Oc3ccccc3)c12 [Compound E, [(4-Hydroxy-1-methyl-8-phenoxy-isoquinoline-3-carbonyl)-amino]-acetic acid]
- EPO Intravenous [7]: 2976 mIU/ml
- EPO Oral Gavage [7]: 744 mIU/ml
- Hemoglobin 2 mg/kg cmpd [8]: 12.23 g/dL
- Hemoglobin 6 mg/kg cmpd [8]: 13.29 g/dL
- Hemoglobin 20 mg/kg cmpd [8]: 13.41 g/dL
- Hemoglobin 60 mg/kg cmpd [8]: 15.9 g/dL

Compound: Cc1nc(C(=O)NCC(=O)O)c(O)c2ccc(Cl)cc12 [Compound F, [(7-Chloro-4-hydroxy-1-methyl-isoquinoline-3-carbonyl)-amino]-acetic acid]
- EPO Intravenous [7]: 3967 mIU/ml
- Hemoglobin 6 mg/kg cmpd [8]: 13.66 g/dL
- Hemoglobin 20 mg/kg cmpd [8]: 14.15 g/dL
- Hemoglobin 60 mg/kg cmpd [8]: 17.74 g/dL

Compound: Cc1nc(C(=O)NCC(=O)O)c(O)c2cccc(Oc3ccc(F)cc3)c12 [Compound G, {[8-(4-Fluoro-phenoxy)-4-hydroxy-1-methyl-isoquinoline-3-carbonyl]-amino}-acetic acid]
- EPO Intravenous [7]: 10969 mIU/ml
- EPO Oral Gavage [7]: 2546 mIU/ml
- Hemoglobin 2 mg/kg cmpd [8]: 14.39 g/dL
- Hemoglobin 6 mg/kg cmpd [8]: 13.13 g/dL
- Hemoglobin 20 mg/kg cmpd [8]: 14.85 g/dL
- Hemoglobin 60 mg/kg cmpd [8]: 17.7 g/dL

Compound: N#Cc1nc(C(=O)NCC(=O)O)c(O)c2sccc12 [Compound H, [(4-cyano-7-hydroxy-thieno[3,2-c]pyridine-6-carbonyl)-amino]-acetic acid]
- EPO Intravenous [7]: 1242 mIU/ml
- EPO Oral Gavage [7]: 608 mIU/ml
- Hemoglobin 2 mg/kg cmpd [8]: 12.67 g/dL
- Hemoglobin 6 mg/kg cmpd [8]: 13.65 g/dL
- Hemoglobin 20 mg/kg cmpd [8]: 13.53 g/dL
- Hemoglobin 60 mg/kg cmpd [8]: 14.2 g/dL

Compound: rhEPO: recombinant human erythropoietin (rhEPO), an erythropoiesis stimulating protein; current therapy for anemia
- Cmax EPO ([9]; rhEPO 10 U/kg i.v.): 181 mIU/ml
- Cmax EPO ([9]; rhEPO 50 U/kg i.v.): 1,430 mIU/ml
- Cmax EPO ([9]; rhEPO 150 U/kg i.v.): 4,438 mIU/ml
- Cmax EPO ([9]; rhEPO 300 U/kg s.c.): 429 mIU/ml
- Cmax EPO ([9]; rhEPO 450 U/kg s.c.): 1,263 mIU/ml
- Cmax EPO ([9]; rhEPO 500 U/kg i.v.): 16,257 mIU/ml
- Cmax EPO ([9]; rhEPO 600 U/kg s.c.): 1,263 mIU/ml
